Results reported in patent US10064839B2, “Methods of treating liver diseases” (Zafgen, Inc., priority 2012, dated 2018).

How the values were obtained:
NASH mice = assay: Non-alcoholic steatohepatitis (STZ + high fat diet) mouse model; assay type: in vivo; details: for Mean body weight at the day before sacrifice: 5 to 9 weeks of age, Vehicle 18.8±1.0 g; for Fibrosis area (Sirius red-positive area): Vehicle 1.07±0.18%; for Inflammation area (F4/80-positive area): Vehicle 3.57±0.88%; for Fat deposition area (oil red-positive area): Vehicle 23.57±6.52%; for Liver TG content: Vehicle 67.3±29.0; for Whole blood HbA1c levels: FIG. 9; for NAFLD Activity score (NAS): Vehicle 5.4±0.9
Protocol: NASH was induced in 48 male mice by a single subcutaneous injection of 200 μg streptozotocin (STZ; Sigma-Aldrich) in the back of mice 2 days after birth, and by feeding with high fat diet (HFD; 57 kcal % fat) after 4 weeks of age. At 5 weeks of age, the NASH mice were randomized into 6 groups of 8 mice based on body weight. Eight male littermates, fed with normal diet (without STZ treatment, were used for the Normal group. Vehicle, Compound A and Telmisartan were administered by the oral route in a volume of 10 mL/kg body weight.
Compound A was administered twice daily at doses of 1, 3 or 10 mg/kg body weight (i.e., 2, 6 or 20 mg/kg/day) and once daily at dose of 30 mg/kg body weight. Telmisartan was administered once daily at a dose of 10 mg/kg body weight.
C57BL/6 mice (15-day pregnant female) were obtained from Charles River Laboratories Japan (Japan). The animals were maintained in a SPF facility under controlled conditions of temperature (23±2° C.), humidity (45±10%), lighting (12-hour artificial light and dark cycles; light from 8:00 to 20:00) and air exchange. A high pressure (20±4 Pa) was maintained in the experimental room to prevent contamination of the facility.
Mice were fasted for 4 hours before blood was collected at the time of sacrifice. HbA1c levels were quantified in whole blood samples by DCA Vantage Analyzer (Siemens Healthcare Diagnostics, USA). For plasma biochemistry, blood was collected in polypropylene tubes with anticoagulant (Novo-Heparin;) and centrifuged at 1,000×g for 15 minutes at 4° C. The supernatant was collected and stored at −80° C. until use. Plasma levels of glucose, ALT, TG and total cholesterol were measured by FUJI DRI-CHEM 7000 (Fujifilm, Japan). Plasma insulin concentration was quantified by the Ultra Sensitive Mouse Insulin ELISA Kit.
Liver total lipid-extracts were obtained by Folch's method (Folch J. et al., J. Biol. Chem. 1957; 226: 497). Liver samples were homogenized in chloroform-methanol (2:1, v/v) and incubated overnight at room temperature. After washing with chloroform-methanol-water (8:4:3, v/v/v), the extracts were evaporated to dryness, and dissolved in isopropanol. Liver TG levels were measured by Triglyceride E-test (Wako Pure Chemical Industries). Extracts were diluted 2-fold in isopropanol when the TG content exceeded the detection limit.
For HE staining, sections were cut from paraffin blocks of liver tissue prefixed in Bouin's solution and stained with Lillie-Mayer's Hematoxylin (Muto Pure Chemicals, Japan) and eosin solution (Wako Pure Chemical Industries). NAFLD Activity score (NAS) was calculated according to the criteria of Kleiner (Kleiner D E et al., Hepatology, 2005; 41:1313). To visualize collagen deposition, Bouin's fixed liver sections were stained using picro-Sirius red solution (Waldeck, Germany). To visualize macro- and microvesicular fat, cryosections were cut from frozen liver tissues, prefixed in 10% neutral buffered formalin, embedded in Tissue-Tek O.C.T. compound (Sakura Finetek Japan, Japan), and stained with Oil Red O (Sigma-Aldrich). For immunohistochemistry, sections were cut from frozen liver tissues embedded in Tissue-Tek O.C.T. compound and fixed in acetone. Endogenous peroxidase activity was blocked using 0.03% H2O2 for 5 minutes, followed by incubation with Block Ace (Dainippon Sumitomo Pharma, Japan) for 10 minutes. The sections were incubated with a 200-fold dilution of anti-F4/80 antibody (BMA Biomedicals, Switzerland) over night at 4° C. After incubation with secondary antibody (HRP-Goat anti-rat antibody, Invitrogen, USA), enzyme-substrate reactions were performed using 3, 3′-diaminobenzidine/H2O2 solution (Nichirei, Japan). […]

[1] = system: Diet induced obese (DIO) C57BL6 mice; assay: Diet induced obese mouse study of compound A; assay type: in vivo
Protocol: Diet induced obese (DIO) C57BL6 mice were provided with varying doses of compound A and fumagillin (fum). Tissue biomarkers in peri-renal fat, mesenteric fat and the liver were measured.
(FIG. 3). Decrease in plasma insulin in mice, after once or twice a day administration of compound A vs. vehicle is also observed (FIG. 4).

For `CCN(CC)C/C=C\c1cc(F)ccc1S(=O)(=O)Nc1ccc2c(c1C(=O)O)OC[C@@H]1C[C@H]21` (single isomer, unassigned) [Example 12], the “HE-stained liver sections vs Vehicle group” value (NASH mice; 1 mg/kg (BID)) was “No obvious differences”, the “Mean body weight at the day before sacrifice” value (“Mean body weight” below) (NASH mice; 1 mg/kg (BID) oral) was 19.2 ± 1.4 g and the “Fibrosis area (Sirius red-positive area)” value (NASH mice; 1 mg/kg (BID)) was 1.12±0.46%. For the same compound, the “Inflammation area (F4/80-positive area)” value (NASH mice; 1 mg/kg (BID)) was 3.67±0.91%, the “Fat deposition area (oil red-positive area)” value (shortened to “Fat deposition area”) (NASH mice; 1 mg/kg (BID)) was 18.47±5.22% and the “Liver TG content” value (NASH mice; 1 mg/kg (BID)) was 71.7±30.3 mg/g liver. The “Hepatocellular ballooning and inflammatory cell infiltration vs Vehicle group” value (NASH mice; 3 mg/kg (BID)) was “decrease”, the “Mean body weight” value (NASH mice; 3 mg/kg (BID) oral) was 18.7 ± 1.4 g and the “Whole blood HbA1c levels” value (NASH mice; 3 mg/kg (BID)) was “decreased”. For the same compound, the “Fibrosis area (Sirius red-positive area)” value (NASH mice; 3 mg/kg (BID)) was 0.89±0.32%, the “Inflammation area (F4/80-positive area)” value (NASH mice; 3 mg/kg (BID)) was 3.47±0.65% and the “NAFLD Activity score (NAS)” value (NASH mice; 3 mg/kg (BID)) was 3.6±1.6. For the same compound, the “Fat deposition area” value (NASH mice; 3 mg/kg (BID)) was 19.53±4.64%, the “Liver TG content” value (NASH mice; 3 mg/kg (BID)) was 52.9±18.5 mg/g liver and the “Hepatocellular ballooning and inflammatory cell infiltration vs Vehicle group” value (NASH mice; 10 mg/kg (BID)) was “decrease”. The “Mean body weight” value (NASH mice; 10 mg/kg (BID) oral) was 18.7 ± 1.0 g, the “Whole blood HbA1c levels” value (NASH mice; 10 mg/kg (BID)) was “decreased” and the “Fibrosis area (Sirius red-positive area)” value (NASH mice; 10 mg/kg (BID)) was 1.07±0.31%. For the same compound, the “Inflammation area (F4/80-positive area)” value (NASH mice; 10 mg/kg (BID)) was 3.82±0.57%, the “NAFLD Activity score (NAS)” value (NASH mice; 10 mg/kg (BID)) was 3.4±1.5 and the “Fat deposition area” value (NASH mice; 10 mg/kg (BID)) was 23.31±9.18%. The “Liver TG content” value (NASH mice; 10 mg/kg (BID)) was 56.7±25.8 mg/g liver, the “HE-stained liver sections vs Vehicle group” value (NASH mice; 30 mg/kg (QD)) was “No obvious differences” and the “Mean body weight” value (NASH mice; 30 mg/kg (QD) oral) was 17.9 ± 0.9 g. For the same compound, the “Fibrosis area (Sirius red-positive area)” value (NASH mice; 30 mg/kg (QD)) was 0.99±0.43%, the “Inflammation area (F4/80-positive area)” value (NASH mice; 30 mg/kg (QD)) was 3.90±0.78% and the “Fat deposition area” value (NASH mice; 30 mg/kg (QD)) was 22.30±9.59%. For the same compound, the “Liver TG content” value (NASH mice; 30 mg/kg (QD)) was 62.4±18.1 mg/g liver, the “Plasma total cholesterol levels” value (NASH mice; BID dosing, dose dependent, FIG. 10) was “decreased” and the NAS (NASH mice; QD dosing (30 mg/kg)) was “did not show evident improvement”. The “Plasma total cholesterol levels” value (NASH mice; QD dosing (30 mg/kg)) was “significantly decreased”, the “Whole blood HbA1c” value (NASH mice; QD dosing (30 mg/kg)) was “did not show evident improvement” and the “Expression of genes implicated in pathogenesis of fatty liver and fibrosis (liver mRNA microarray)” value ([1]; 3 mg/kg/bid×10 days, DIO obese mice, FIG. 6) was “favorably regulated”. For the same compound, the “Tissue biomarkers in peri-renal fat, mesenteric fat and the liver” value ([1]; DIO C57BL6 mice, varying doses, FIG. 1) was “primarily targets the liver”, the Liver weight ([1]; FIG. 5) was “reduction” and the “Mesenteric adipose tissue weight” value ([1]; FIG. 5) was “reduction”. The “Change in bodyweight after 10 days” value ([1]; obese mice, increasing doses over 10 days, vs vehicle, FIG. 2) was “marked decrease in body weight”, the Blood cholesterol ([1]; obese mice, vs vehicle, FIG. 3) was “marked lowering” and the Blood glucose ([1]; obese mice, vs vehicle, FIG. 3) was “marked lowering”. The Plasma insulin ([1]; once or twice a day administration vs vehicle, FIG. 4) was “Decrease” and the AMES (AMES) was “negative”.
